From US6534503B1, “Melanocortin receptor-3 ligands to treat sexual dysfunction” (Lion Bioscience AG, priority 1998, dated 2003)

Assays:
male Sprague-Dawley rats [1] = assay: Effect of dopamine receptor antagonist sulpiride on erectile effects in rats; assay type: in vivo; conditions: rat
Source text: (§1) In both examples, male Sprague-Dawley rats, about 200 to 225 g, were acclimated for 5 days in a reverse light:dark cycle room (dark 10 a.m. to 10 p.m.) before being aseptically ICV cannulated. Rats with indwelling ICV cannulae were housed one per cage. After surgery, 4 days were allowed for recovery and 10 days total were allowed for adaptation to the light cycle. Rats were caged individually after surgery and body weights at the time of treatment averaged 250 g. Otherwise, the procedure is essentially the same as in Example II.
Treatment was between 9:30 a.m. and noon. Each animal received an initial IP injection of vehicle (3 ml/kg PBS) or sulpiride. Sulpiride (Sigma) was administered IP at 50 mg/kg (6 ml/kg IP). Ten minutes later, the animals received a final IP injection of HP-228 or vehicle or a SC injection of apomorphine. HP-228 was administered IP at 2 mg/kg in 3 ml/kg PBS. Apomorphine (Sigma) was administered SC at 0.1 mg/kg (1 ml/kg sterile water).

male Sprague-Dawley rats [2] = assay: Effect of oxytocin receptor antagonist vasotocin on erectile effects in rats; assay type: in vivo; conditions: rat
Source text: as §1
Treatment was between 10 a.m. and 1 p.m. […] Vasotocin (Peninsula Laboratories, San Carlos Calif.) was administered ICV at 100 ng/rat. Oxytocin (Sigma, St. Louis Mo.) was administered ICV at 30 ng/rat (10 μl/rat PBS). Ten minutes later, IP injections of HP-228 or vehicle were given. HP-228 was administered IP at 2 mg/kg in 3 ml/kg PBS. One group of animals received ICV injections of vasotocin and oxytocin ICV injections of 5 μl/rat each at double concentrations for a total of 10 μl injected ICV. In this group, the rats received vasotocin first, followed by oxytocin.

MC-3 = biological target: T1, MC-3 (Homo sapiens, UniProt P41968); assay: cAMP assay for melanocortin receptors, HEK 293 cells expressing MC-3; assay type: cell-based; conditions: for Emax: HEK293, percentage of stimulation obtained by adding HP-228 at 0.8 μM, read-out: % of HP-228 (MC-3 stimulatory effect); for EC50: concentration for 50% of the maximum increase by that ligand
T1 construct: expressed in transfected cells; host or cells: HEK 293
T1 sequence (P41968 whole entry): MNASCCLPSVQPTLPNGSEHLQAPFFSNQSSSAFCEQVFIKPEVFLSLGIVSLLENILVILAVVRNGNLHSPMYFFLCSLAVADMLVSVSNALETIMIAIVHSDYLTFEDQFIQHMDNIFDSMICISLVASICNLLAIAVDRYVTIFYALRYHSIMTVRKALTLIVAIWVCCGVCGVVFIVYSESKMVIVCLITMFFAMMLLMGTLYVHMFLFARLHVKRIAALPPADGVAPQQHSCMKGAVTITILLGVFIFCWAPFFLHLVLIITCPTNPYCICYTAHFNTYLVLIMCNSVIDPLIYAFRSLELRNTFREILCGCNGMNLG
Source text: (§2) All cell culture media and reagents were obtained from GibcoBRL (Gaithersburg Md.), except for COSMIC CALF SERUM (HyClone; Logan Utah). HEK 293 cell lines were transfected with human MC receptors hMCR-1, hMCR-3 and hMCR-4 (Gantz et al., Biochem. Biophys. Res. Comm. 200:1214-1220 (1994); Gantz et al., J. Biol. Chem. 268:8246-8250 (1993); Gantz et al. J. Biol. Chem. 268:15174-15179 (1993); Haskell-Leuvano et al., Biochem. Biophys. Res. Comm. 204:1137-1142 (1994)). Vectors for constructing an hMCR-5-expressing cell line were obtained and a line of HEK 293 cells expressing hMCR-5 was constructed (Gantz, supra, 1994). Receptor hMCR-5 has been described previously (Franberg et al., Biochem. Biophys. Res. Commun. 236:489-492 (1997); Chowdhary et al., Cytogenet. Cell Genet. 68:1-2 (1995); Chowdhary et al., Cytogenet. Cell Genet. 68:79-81 (1995)). HEK 293 cells were maintained in DMEM, 25 mM HEPES, 2 mM glutamine, non-essential amino acids, vitamins, sodium pyruvate, 10% COSMIC CALF SERUM, 100 units/ml penicillin, 100 μg/ml streptomycin and 0.2 mg/ml G418 to maintain selection.
(§3) This example describes methods for assaying cAMP production from G-protein-coupled MC receptors.
(§4) HEK 293 cells individually expressing MCR-1, CR-3, MCR-4 or MCR-5 were used. Cells were plated at 20,000 cells per well in a 96-well plate coated with collagen (Beckton Dickinson; Bridgeport N.J.). The next day, cells were pretreated with 88 μl of 0.4 mM 3-isobutyl-1-methylxanthine (IBMX) in low serum medium containing DMEM, 25 mM HEPES and 0.1% COSMIC CALF SERUM. IBMX is an inhibitor of cAMP phosphodiesterase. The pretreatment was carried out for 10 minutes at 37° C.
(§5) Following pretreatment, 12.5 μl of diluted compound was added to the wells and cells were incubated for 15 min at 37° C. Cells were lysed by adding 25 μl saponin lysis buffer (130 mM KCl, 1 mM KH2PO4, 2.5 mM MgSO4, 15 mM sucrose, 20 mM HEPES, 2% BSA, 0.8% saponin) and incubating 2 to 5 minutes. Plates were covered and stored at −20° C.
(§6) The cAMP concentration was determined by ELISA. Briefly, 96 well ELISA plates were coated with goat anti-cAMP antibody in PBS for 12 to 72 hr at 4° C. 50 μl of sample was mixed with 50 μl of cAMP ELISA buffer containing 1% bovine serum albumin, 10% heat inactivated donor horse serum, 1% normal mouse serum and 0.05% TWEEN-20 in PBS, and the diluted sample was added to the coated ELISA plate. Standards of known concentrations of cAMP were added to separate wells. Then, cAMP-conjugated horseradish peroxidase (cAMP-HRP) was added to each well at 25 μl of 16 ng/ml. The plates were incubated for 3 hr at room temperature. Plates were washed and the binding of cAMP-HRP was detected with 3,3′,5,5′-tetramethylbenzidine (TMB) and hydrogen peroxide using standard immunoassay procedures.
(§7) Various compounds were tested for in vitro activity and binding to melanocortin receptors. MC-3 stimulatory effect is also described in terms of percentage of stimulation obtained by adding HP-228 at 0.8 μM. The EC50 values are the concentration of ligand necessary to achieve 50% of the maximum increase by that ligand in an assay. The IC50 values are the concentration giving 50% inhibition of binding of ^125I-HP 467.

MC-4 = biological target: T2, MC-4 (Homo sapiens, UniProt P32245); assay: cAMP assay for melanocortin receptors, HEK 293 cells expressing MC-4; assay type: cell-based; conditions: concentration for 50% of the maximum increase by that ligand
T2 construct: expressed in transfected cells; host or cells: HEK 293
T2 sequence (P32245 whole entry): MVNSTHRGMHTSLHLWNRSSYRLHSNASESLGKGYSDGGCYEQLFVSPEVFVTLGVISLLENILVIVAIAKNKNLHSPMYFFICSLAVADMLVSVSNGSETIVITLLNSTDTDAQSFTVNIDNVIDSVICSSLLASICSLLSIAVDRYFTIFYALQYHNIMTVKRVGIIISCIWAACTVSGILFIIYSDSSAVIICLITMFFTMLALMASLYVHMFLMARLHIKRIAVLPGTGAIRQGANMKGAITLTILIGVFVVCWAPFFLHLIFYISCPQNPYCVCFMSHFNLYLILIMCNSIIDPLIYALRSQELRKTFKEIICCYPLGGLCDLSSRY
Source text: as §2, §3, §4, §5, §6, §7

MC-1 = biological target: T3, MC-1 (Homo sapiens, UniProt Q01726); assay: cAMP assay for melanocortin receptors, HEK 293 cells expressing MC-1; assay type: cell-based; conditions: concentration for 50% of the maximum increase by that ligand
T3 construct: expressed in transfected cells; host or cells: HEK 293
T3 sequence (Q01726 whole entry): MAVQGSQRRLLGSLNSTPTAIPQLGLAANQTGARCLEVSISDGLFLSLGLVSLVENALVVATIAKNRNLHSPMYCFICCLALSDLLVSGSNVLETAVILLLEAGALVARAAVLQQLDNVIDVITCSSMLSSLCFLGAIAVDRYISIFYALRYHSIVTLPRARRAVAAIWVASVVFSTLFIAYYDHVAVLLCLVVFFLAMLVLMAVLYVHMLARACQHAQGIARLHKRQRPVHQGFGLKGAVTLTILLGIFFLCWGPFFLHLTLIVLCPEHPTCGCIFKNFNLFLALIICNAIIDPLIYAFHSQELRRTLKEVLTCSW
Source text: as §2, §3, §4, §5
as §6, with “procedures. […]” for “procedures.”

[3] = single agent plus PBS: apomorphine 0.1 mg/kg SC, HP-228 2 mg/kg IP, sulpiride 50 mg/kg IP
[4] = single agent plus PBS: oxytocin 30 ng/rat ICV, HP-228 2 mg/kg IP, vasotocin 100 ng/rat ICV
[5] = sulpiride 50 mg/kg IP followed by HP-228 2 mg/kg IP
[6] = sulpiride 50 mg/kg IP followed by apomorphine 0.1 mg/kg SC
[7] = vasotocin 100 ng/rat ICV followed by HP-228 2 mg/kg IP
[8] = vasotocin ICV followed by oxytocin ICV

Molecule	Emax (MC-3)	EC50 (MC-3)	EC50 (MC-4)	EC50 (MC-1)	further results
CN1CCc2cccc3c2[C@H]1Cc1ccc(O)c(O)c1-3 [apomorphine]	–	–	–	–	response rate, % of animals (male Sprague-Dawley rats [1]; apomorphine and HP-228 groups): 100%; erections per hour (male Sprague-Dawley rats [1]; [3]): 4.0 erections per hour; rate of animals responding (male Sprague-Dawley rats [1]; [3]): 6/6
CC[C@H](C)[C@@H]1NC(=O)[C@H](Cc2ccc(O)cc2)NC(=O)[C@@H](N)CSSC[C@@H](C(=O)N2CCC[C@H]2C(=O)N[C@@H](CC(C)C)C(=O)NCC(N)=O)NC(=O)[C@H](CC(N)=O)NC(=O)[C@H](CCC(N)=O)NC1=O [Oxytocin]	–	–	–	–	response rate, % of animals (male Sprague-Dawley rats [2]; oxytocin and HP-228 groups): 88%-100%; erections per hour (male Sprague-Dawley rats [2]; [4]): 3.9 erections per hour; responder rate of animals (rats responding out of rats) (male Sprague-Dawley rats [2]; [4]): 7/8
CC(C)c1ccc(-c2nc3cc(C(=O)NC(Cc4ccccc4)c4ccccc4)ccc3n2C(CCCNC(=N)N)C(N)=O)cc1 (centres unmarked) [Compound C]	92%	1400 nM	10.6 µM	–	–
CC(C)(C)c1ccc(-c2nc3cc(C(=O)N4CC=C(c5ccc(Cl)cc5)CC4)ccc3n2[C@@H](CCCNC(=N)N)C(N)=O)cc1 [Compound K]	91%	1750 nM	0.08 µM	380 nM	–
CCN1CCCC1CNC(=O)c1cc(S(N)(=O)=O)ccc1OC (centres unmarked) [sulpiride]	–	–	–	–	erections per hour (male Sprague-Dawley rats [1]; [3]): 0.0 erections per hour; rate of animals responding (male Sprague-Dawley rats [1]; [3]): 0/2; erections per hour (male Sprague-Dawley rats [1]; [5]): 6.7 erections per hour; rate of animals responding (male Sprague-Dawley rats [1]; [5]): 4/4; erections per hour (male Sprague-Dawley rats [1]; [6]): 1.5 erections per hour; rate of animals responding (male Sprague-Dawley rats [1]; [6]): 3/4
CCCCOc1ccc(-c2nc3cc(C(=O)NC(Cc4ccccc4)c4ccccc4)ccc3n2C(CCCNC(=N)N)C(N)=O)cc1 (centres unmarked) [Compound B]	115%	1330 nM	12 µM	–	–
CC(C)(C)c1ccc(-c2nc3cc(C(=O)NC(Cc4ccccc4)c4ccccc4)ccc3n2C(CCCNC(=N)N)C(N)=O)cc1 (centres unmarked) [Compound E]	59%	6700 nM	19.9 µM	430 nM	–
d(CH2)5-Tyr(Me^2)-Orn^8-Vasotocin	–	–	–	–	erections per hour (male Sprague-Dawley rats [2]; [4]): 0.2 erections per hour; responder rate of animals (rats responding out of rats) (male Sprague-Dawley rats [2]; [4]): 2/8; erections per hour (male Sprague-Dawley rats [2]; [7]): 5.6 erections per hour; responder rate of animals (rats responding out of rats) (male Sprague-Dawley rats [2]; [7]): 8/8; erections per hour (male Sprague-Dawley rats [2]; [8]): 1.0 erections per hour; responder rate of animals (rats responding out of rats) (male Sprague-Dawley rats [2]; [8]): 4/8

Further lines, with some results ahead:

Emax (MC-3)	EC50 (MC-3)	EC50 (MC-4)	EC50 (MC-1)	Molecule	further results
89%	3670 nM	–	–	CCCCOc1ccc(-c2nc3cc(C(=O)N(CCc4ccccc4)Cc4cccnc4)ccc3n2[C@@H](CCCNC(=N)N)C(N)=O)cc1 [Compound M]	–
140%	1700 nM	2.8 µM	–	CC(C)c1ccc(-c2nc3cc(C(=O)N(CCc4ccccc4)Cc4ccccc4)ccc3n2C(CCCNC(=N)N)C(N)=O)cc1 (centres unmarked) [Compound D]	–
350%	4690 nM	6.35 µM	220 nM	CC(C)(C)c1ccc(-c2nc3cc(C(=O)N(CCc4ccccc4)Cc4cccnc4)ccc3n2[C@@H](CCCNC(=N)N)C(N)=O)cc1 [Compound L]	–
89%	7650 nM	–	470 nM	CC(C)(C)c1ccc(-c2nc3cc(C(=O)N(CCc4ccccc4)Cc4ccccc4)ccc3n2C(CCCNC(=N)N)C(N)=O)cc1 (centres unmarked) [Compound A]	–
229%	2320 nM	5.9 µM	–	CCCCCc1ccc(-c2nc3cc(C(=O)N(CCc4ccccc4)Cc4ccccc4)ccc3n2[C@@H](CCCNC(=N)N)C(N)=O)cc1 [Compound N]	–
